{
  "source": "patent US20070225255A1",
  "about": "“Use of Mitochondrially Targeted Antioxidant in the Treatment of Liver Diseases and Epithelial Cancers” (priority 2004, published 2007)",
  "key": {"[1]": {"system": "human cell lines intoxicated with DDC or BSO", "assay": "ROS formation in cell lines intoxicated with DDC or BSO", "format": "cell-based", "details": "simultaneous treatment at concentrations corresponding to EC50", "from_the_text": "Another simple set of experiments employing hepatoma cell lines (e.g. HepG2 or Hep3B), the SNU-398 hepatocellular carcinoma-derived cell line (ATCC No. CRL-2233, LGC Promochem, Germany), the HUH-7 human carcinoma-derived cell line (Japanese collection of Research Biosources JCRB 0403) or the Tib-73 mouse embryonic liver cell line (ATCC TIB 73=BNL CL2 derived from BAL/c mouse, MD, USA) allows measurement of ROS production in these cells upon DDC intoxication.\nTo determine ROS production in for example hepatoma cell lines a standard experimental protocol according to Example 8 is applied. Tested hepatoma cells are grown in 96-well plates in culture medium (DMEM supplemented with 10% FCS, Gibco) to 80% confluency, subsequently washed with HBSS and incubated in the dark with DHE (10-50 μM) for 10 minutes at 37° C. Cells are then washed twice with Hank's balanced salt solution (HBSS, Gibco) to remove excess dye. Fluorescence is monitored in a fluorescence microscope (Olympus, Hamburg, Germany).\nAlternatively, the generation of ROS is measured by using the fluoroprobe 5-(and-6)-chloromethyl-2′,7′-dichlorodihydrofluorescein diacetate acetyl ester (CM-H2DCFDA, Molecular Probes, Goettingen, Germany) which is converted to fluorescent dichlorofluorescien (DCF; Djordjevic T. et al., 2004, Antioxidants & Redox Signaling, 6: 713-720). To determine DCF fluorescence in a microplate reader (Tecan, Crailsheim, Germany), cells (e.g. HepG2, Hep3B or SNU-398) are grown in 96-well plates to 80% confluency. […] After several washes with HBSS to remove excess dye, fluorescence is monitored by using 480 nm excitation and 540 nm emission wavelength. DCF fluorescence is standardized to the number of viable cells using the Alamar Blue test according to the manufacturer's instructions (Biosource, Nivelles, Belgium). […] The absorbance is then measured at the wavelength of 580 μm."}, "[2]": {"system": "DDC- or GF intoxicated mice", "assay": "Toxic memory effect upon reintoxication with DDC or GF after recovery", "format": "in vivo, mouse", "details": "10 weeks DDC or GF, 4 weeks recovery, reexposure 24 to 72 hours with simultaneous treatment", "source_text": "Mouse livers respond to DDC- or GF intoxication first with ballooning of hepatocytes and formation of a denser keratin IF network. After around 6 weeks of intoxication, ballooned hepatocytes show a reduced density of the keratin IF and early MBs can be observed as fine granules associated with the keratin IF network. Continuation of intoxication leads to the appearance of large MBs typically located in the perinuclear cytoplasmic region. […] Upon cessation of intoxication, MBs disappear within several weeks. At 4 weeks of recovery from intoxication, there are groups of hepatocytes devoid of cytoplasmic keratin filaments but still containing small remnants of MBs at the cell periphery in association with desmosomes. If such mice are reexposed to DDC or GF numerous MBs reappear within 24 to 72 hours (Stumptner C. et al., 2001, J. Hepatol., 34: 665-675). This enhanced formation of MBs upon reintoxication was interpreted—in analogy to allergic reactions—as a toxic memory effect.\nIn another set of experiments, 10 week-intoxication of mice with DDC or GF is followed by 4 weeks of recovery."}, "[3]": {"details": "according to Jauslin M. L. et al., 2003, FASEB J.; cited from earlier work"}, "[4]": {"system": "mitochondria within isolated cells", "details": "in vitro; cited from earlier work"}, "[5]": {"details": "intraperitoneal or i.v. (tail vein) injections, mice; cited from earlier work"}, "[6]": {"details": "fed in drinking water for 3 to 7 days, 500 μM or 1 mM (MitoVit E 500 μM); cited from earlier work"}, "[7]": {"details": "fed to mice on a long term basis; cited from earlier work"}, "[8]": {"system": "patients having liver cirrhosis and a history of hepatitis C virus (HCV) infection", "details": "patients with liver cirrhosis and HCV history (VitE group); cited from earlier work"}, "[9]": {"system": "human epithelial cell cancer xenografts", "assay": "Nude mice tumor xenografts", "format": "in vivo, mouse", "method": "Tumor cell lines or primary tumors that are xenografted subcutaneously according to standard methods (Li K. et al., 2003, Cancer Res., 63(13): 3593-3597) include colon adenocarcinomas, invasive ductal carcinomas of the breast, small and non-small cell lung carcinoma, prostate tumors, pancreatic tumors and stomach tumors.\nTumor-derived cell lines (grown in DMEM/10% FBS) are harvested in log-phase growth, washed twice with PBS, resuspended in 1 ml PBS (2.5×10^7 cells/ml), and injected subcutaneously into the right flank of a nude mouse (Hsd: athymic nu/nu, Harlan Winkelmann; aged between 5 and 6 weeks) at 5×10^6 cells/mouse (0.2 ml). Tumor growth is monitored every other day for the indicated periods (depending on the cell type). Tumor size is determined by the product of two perpendicular diameters and the height above the skin surface."}, "[10]": {"system": "choline deficient diet fed rats", "details": "cited from earlier work"}, "[11]": {"system": "hepatoma cell lines", "assay": "DDC intoxication of hepatoma cell lines", "format": "cell-based", "details": "hepatoma cell lines incubated for up to 72 hours in DMEM and 10% FCS", "method": "The hepatoma cell lines incubated for up to 72 hours in culture medium (DMEM and 10% FCS, Gibco) supplemented with DDC (EC50=50 μg/ml of medium) or with up to 100 μM BSO are another suitable in vitro model mimicking observations made in patients suffering from the diseases according to the invention."}},
  "data": [
    {"molecule": "Cc1c(C)c2c(c(C)c1O)CCC(C)(CC[P+](c1ccccc1)(c1ccccc1)c1ccccc1)O2", "note": "(stereo not drawn) [MitoVit E, [2-(3,4-dihydro-6-hydroxy-2,5,7,8-tetramethyl-2H-1-benzopyran-2-yl)ethyl]-triphenylphosphonium bromide]", "values": [
      {"measurement": "ROS formation", "setting": "[1]", "result": "significant reduction in ROS formation"},
      {"measurement": "toxic memory effect (reappearance of MBs)", "setting": "[2]", "result": "reduced or abolished"},
      {"measurement": "EC50", "setting": "[3]", "result": 416, "unit": "nM"},
      {"measurement": "accumulation by mitochondria", "setting": "[4]", "result": "rapidly and selectively accumulated by mitochondria"},
      {"measurement": "maximum tolerated dose", "setting": "[5]", "result": 6, "unit": "mg/kg/day"},
      {"measurement": "gross signs of toxicity", "setting": "[6]", "result": "without any gross signs of toxicity"},
      {"measurement": "concentrations within the brain, heart, liver, and muscle", "setting": "[7]", "result": "potentially therapeutically effective concentrations"},
      {"measurement": "safety of feeding", "setting": "[7]", "result": "fed safely"}
    ]},
    {"molecule": "Cc1c(C)c2c(c(C)c1O)CC[C@@](C)(CCC[C@H](C)CCC[C@H](C)CCCC(C)C)O2", "note": "[alpha-tocopherol]", "values": [
      {"measurement": "liver function, hepatocarcinogenesis, cumulative survival", "setting": "[8]", "result": "neither improvement of liver function, suppression of hepatocarcinogenesis, nor improvement of cumulative survival"}
    ]},
    {"molecule": "C[P+](c1ccccc1)(c1ccccc1)c1ccccc1", "note": "[TPMP, reference compound]", "values": [
      {"measurement": "safety of feeding", "setting": "[7]", "result": "fed safely"}
    ]},
    {"molecule": "COc1c(O)c(C)c(CCCCCCCCCC[P+](c2ccccc2)(c2ccccc2)c2ccccc2)c(O)c1OC.CS(=O)(=O)[O-]", "note": "[MitoS]", "values": [
      {"measurement": "ROS formation", "setting": "[1]", "result": "significant reduction in ROS formation"},
      {"measurement": "growth of tumors", "setting": "[9]", "result": "reduced growth of tumors"},
      {"measurement": "necrosis of the tumors", "setting": "[9]", "result": "increased necrosis of the tumors"},
      {"measurement": "vascularization of the tumor xenografts", "setting": "[9]", "result": "decreased vascularization"},
      {"measurement": "toxic memory effect (reappearance of MBs)", "setting": "[2]", "result": "reduced or abolished"},
      {"measurement": "gross signs of toxicity", "setting": "[6]", "result": "without any gross signs of toxicity"}
    ]},
    {"molecule": "vitamin E", "values": [
      {"measurement": "development of fatty liver and oxidative stress", "setting": "[10]", "result": "neither prevented the development of fatty liver nor reduced the oxidative stress"}
    ]},
    {"molecule": "CCOC(=O)C1=C(C)NC(C)=C(C(=O)OCC)C1C", "note": "[DDC]", "values": [
      {"measurement": "EC50", "setting": "[11]", "result": "50 μg/ml of medium"}
    ]}
  ]
}
